# Key:
# [1] = test system: phosphodiesterase type IV (PDE IV); assay: Head-twitch test in rats (characteristic of PDE IV inhibitors); type: in vivo, male Wistar rats; settings: observed 15-75 minutes after injection, MED = lowest dose with statistically significant effect
# Description: (§1) The improved effectiveness of the new chiral methylphenyloxazolidinone derivatives in comparison with the racemate can be shown based on the head twitch and grooming reactions in rats that are characteristic of phosphodiesterase type IV (PDE IV) inhibitors. The racemate and the appropriate enantiomers were administered intraperitoneally (i.p.) to male Wistar rats and the occurrence of head twitches and grooming for 15-75 minutes after injection was detected by observation.
# (§2) MED: Minimum effective dose, i.e., the lowest dose that ensures a statistically significant effect.
# [2] = test system: phosphodiesterase type IV (PDE IV); assay: Grooming reaction in rats (characteristic of PDE IV inhibitors); type: in vivo, male Wistar rats; settings: observed 15-75 minutes after injection, MED = lowest dose with statistically significant effect
# Description: as §1, §2
# [3] = molecular target: 3H-Rolipram bond in brain homogenates; assay: Displacement of radiolabeled Rolipram in brain homogenates; type: binding; settings: calculated from IC50: Ki = IC50/[1+(L/KD)]
# Description: The action of the enantiomers on the central nervous system was studied in vitro by examining their capacity to displace radiolabeled Rolipram in brain homogenates (Europ. Journ. of Pharmac. Vol. 127, 105-115 (1986)). The IC50 values (the concentration at which 50% inhibition action occurs) were converted to inhibition constant Ki, which is calculated according to the following formula: […]
# in which L means the concentration of the radioactive tracer and KD means the dissociation constant of the ^3 H-Rolipram bond, which is determined separately.
# TNF-α release = assay: Inhibition of LPS-stimulated TNF-α release from macrophage cell line RAW 264 (Elisa); type: cell-based, murine; settings: Mus musculus, RAW264.7, 30 min preincubation, LPS 10 ng/ml, 18 hours
# Description: A murine macrophage cell line (RAW 264) was preincubated for 30 minutes in the presence and in the absence of various concentrations of PDE-IV inhibitors and then stimulated with LPS (10 ng/ml). 18 hours after stimulation, the culture medium was removed, and the TNF-α release was measured with a specific Elisa test. The test can be obtained from various companies, i.a., from the British biotechnology company Genzyme, and it is carried out as the manufacturer describes.
Ki [3] [nM],Compound,Head-Twitch Test MED i.p. [1] [mg/kg],Grooming MED i.p. [2] [mg/kg],IC50 (TNF-α release) [nM]
20,"CCOc1cc([C@@]2(C)CNC(=O)O2)ccc1OC [Ethyl- (S)-(+)-Isomer, (S)-(+)-5-(3-Ethoxy-4-methoxyphenyl)-5-methyl-2-oxazolidinone]",–,–,–
16,"CCCOc1cc([C@@]2(C)CNC(=O)O2)ccc1OC [(S) - (+) - 2, (S)-(+)-5-(4-Methoxy-3-propoxyphenyl)-5-methyl-2-oxazolidinone]",–,–,2500
0.33,"CCOc1cc([C@]2(C)CNC(=O)O2)ccc1OC [Ethyl- (R)-(-)-Isomer, (R)-(-)-5-(3-Ethoxy-4-methoxyphenyl)-5-methyl-2-oxazolidinone]",–,–,–
0.24,"CCCOc1cc([C@]2(C)CNC(=O)O2)ccc1OC [(R) - (-) - 2, (R)-(-)-5-(4-Methoxy-3-propoxyphenyl)-5-methyl-2-oxazolidinone]",–,–,250
0.61,"CCCOc1cc(C2(C)CNC(=O)O2)ccc1OC (racemic) [(RS) - 2, (R,S)-5-(4-Methoxy-3-propoxyphenyl)-5-methyl-2-oxazolidinone]",–,–,500
0.68,"CCOc1cc(C2(C)CNC(=O)O2)ccc1OC (racemic) [Ethyl- Racemate, (R,S)-5-(3-Ethoxy-4-methoxyphenyl)-5-methyl-2-oxazolidinone]",–,–,–

Compound,Ki [3] [nM],Head-Twitch Test MED i.p. [1] [mg/kg],Grooming MED i.p. [2] [mg/kg],IC50 (TNF-α release) [nM]
"COc1ccc([C@]2(C)CNC(=O)O2)cc1OC1CCCC1 [(R) - (-) - 1, (R)-(-)-5-(3-Cyclopentyloxy-4-methoxyphenyl)-5-methyl-2-oxazolidinone]",0.34,0.39,0.1,–
"COc1ccc([C@@]2(C)CNC(=O)O2)cc1OC1CCCC1 [(S) - (+) - 1, (S)-(+)-5-(3-Cyclopentyloxy-4-methoxyphenyl)-5-methyl-2-oxazolidinone]",3,6.25,6.25,–
"COc1ccc(C2(C)CNC(=O)O2)cc1OC1CCCC1 (racemic) [(R,S) - 1, (R,S)-5-(3-Cyclopentyloxy-4-methoxyphenyl)-5-methyl-2-oxazolidinone]",0.57,1.56,0.1,–

# — patent publication US6025376A, “Chiral methylphenyloxazolidinones” (Schering Aktiengesellschaft, priority 1995, dated 2000)
